Values quoted from earlier work, collected in patent US20240307300A1, “AN IMPROVED PROCESS FOR THE PREPARATION OF AN AQUEOUS OPHTHALMIC SOLUTION OF DIFLUPREDNATE” (SUN PHARMA ADVANCED RESEARCH COMPANY LIMITED, priority 2021, published 2024).

Details: background statement

CCCC(=O)O[C@]1(C(=O)COC(C)=O)CC[C@H]2[C@@H]3C[C@H](F)C4=CC(=O)C=C[C@]4(C)[C@@]3(F)[C@@H](O)C[C@@]21C [Difluprednate]
solubility in aqueous vehicle: practically insoluble
